Test results: patent EP0319986B1, “Anti-plasmin depressant” (NIPPON SHINYAKU COMPANY, LIMITED, priority 1987, dated 1989)
Counter-ions that a name gives are not always drawn.

Test system: α2-plasmin inhibitor (α2-PI)
Experiment: α2-PI activity in culture medium of HepG2 cells (plasmin / S-2251 chromogenic substrate)
Format: cell-based, human
Settings: 200 µg/ml of compound, serum-free medium, 3 to 4 days, culture without test compound = 100%, n=3
Experimental: It is known that human hepatic cancer-derived HepG2 cells synthesize and secrete α2-plasmin inhibitor (α2-PI). The HepG2 cells, 2 x 10^6, were inoculated on a plastic culture plate (diameter of 100 mm) made by Falcon Inc. and cultured in Eagle's minimum medium containing 10% bovine fetal serum.
Three days after, cells adhered to the bottom of the plate were washed twice with Dulbecco's phosphate buffer followed by culturing in 8 ml of serum-free Eagle's medium (containing no Phenol Red) containing 200 µg/ml of a specimen of the compound of the present invention for further 3 to 4 days. […]
To 100 µl of the concentrated sample, 50 µl of 15 mCU plasmin solution was added and further 50 µl of 0.25 µmole S-2251 synthetic chromogenic substrate solution was added thereto followed by reacting at 37°C for 10 minutes. By adding 1 ml of 2% citrate solution, the reaction was stopped. p-Nitroanilide released from the S-2251 substrate was measured at O.D. of 405 nm.
A sample in which decomposition of the S-2251 substrate was measured using the aforesaid Tris buffer instead of the concentrated sample was made a control showing 100% plasmin activity and the concentrated sample cultured without adding a test compound was made a control showing 100% α2-PI activity. […]

| Compound | α2-PI activity (%) |
| --- | --- |
| N-Isoprenylmoranoline [Compound No. 9] | 55% |
| Nojirimycin bisulfite [Compound No. 6] | 67% |

Test system: not listed separately
Experiment: Test on acute toxicity
Settings: mouse, in vivo, ip
Experimental: Four (4) ddY strain male mice of 6 week age were used for each group of the test sample.
In intravenous administration, each sample was dissolved in 0.9% physiological saline and the solution was administered through the tail vein. In intraperitoneal administration, each sample was suspended in 0.5% CMC-physiological saline and 0.1 ml of the suspension per […] of mouse body weight was intraperitoneally administered. In oral administration, each sample was suspended in 0.5% CMC-physiological saline and 0.2 ml of the suspension per […] administered.
Observation was made immediately after the administration. After observation for 1 week after the administration, the mice was sacrificed with chloroform and subjected to autopsy.

| Compound | LD50 at 168 h |
| --- | --- |
| OC[C@H]1NC[C@H](O)[C@@H](O)[C@@H]1O [Compound No. 1, Moranoline] | 5000 mg/kg |

Same assay, conditions: mouse, in vivo, iv

| Compound | LD50 at 168 h |
| --- | --- |
| OC[C@H]1NC[C@H](O)[C@@H](O)[C@@H]1O [Compound No. 1, Moranoline] | 3240 mg/kg |

Same assay, conditions: mouse, in vivo, po

| Compound | LD50 at 168 h |
| --- | --- |
| OC[C@H]1NC[C@H](O)[C@@H](O)[C@@H]1O [Compound No. 1, Moranoline] | 7500 mg/kg |

Test system: CPAE (calf pulmonary artery endothelia)
Experiment: Thrombolytic test in vitro: CPAE culture supernatant on fibrin plate, lysis circle
Format: cell-based
Settings: 5 µl of 0.2 mg/ml compound solution per well of CPAE cells, 72 hours; 5 µl supernatant on fibrin plate with plasminogen, 4 hours; 4 mm or more = thrombolytic ability induced
Experimental: Thrombolytic activity-inducing ability in the established vascular endothelial cell culture system was examined using CPAE (calf pulmonary artery endothelia).
[…] cells were purchased from Dainippon Pharmaceutical Co., Ltd., Department of Laboratory Products. CPAE cells were subcultured in 10% FCS-Eagle MEM medium charged in a culture flask of 25 cm^2. From the cell suspension fractionated upon subculture, 0.1 ml was transferred into a test tube with a sterilized pipette. Then, the cell suspension was diluted to 10 fold with 0.9 ml of Trypan Blue solution and a cell count was counted with a cell counter. After diluting with 10% FCS-Eagle MEM medium so as to have a cell count of 2 x 10^5 cells/ml, 100 µl each/well, namely, 2 x 10^4 cells/well, of the dilution was dispensed in a 96 well microtiter plate (manufactured by Corning) with a micropipette. The plate was incubated at 37°C in 5% CO2.
The compound used according to the present invention was dissolved in medium in 0.2 mg/ml; the compound that was insoluble in the medium was dissolved in less than 1% of DMSO and the resulting solution was aseptically filtered through a filter; 5 µl of the solution was added to the well with a sterilized micropipette 24 hours after onset of the incubation. After culturing at 37°C for 72 hours in 5% CO2, the collected culture supernatant was provided for measurement.
The measurement was performed as follows. Plasminogen, 5 µl, was charged in a well of fibrin plate (manufactured by Kitazato institute), which was allowed to stand until diffusion was completed. After diffusion, 5 µl of the supernatant was charged and then put in a carbon dioxide gas incubator of 37°C. Four hours after, evaluation was made by formation of a transparent lysis circle by fibrinolysis.
In the case of forming a circle of 4 mm or more due to fibrinolysis, it was judged that thrombolytic ability of CPAE cells was induced.
After the fibrinolytic activity was checked over, the well was fixed with 2.5% of glutaraldehyde in a final concentration. Then, the solution was discarded and the system was washed with PBS. After washing, moisture was removed. After staining with 100 µl of 0.1% crystal violet and allowing stand for 2 to 3 minutes, the system was washed with running water. After an excess of the staining solution was washed out, moisture was removed and the dye bound to the cells was eluted by 100 µl of methanol. Using multiscanning (Titertech), measurements were performed at a wavelength of 580 nm in accordance with the ABS method and the matrix method to confirm that the cells were not injured.

| Compound | Diameter (mm) of the circle due to fibrinolysis |
| --- | --- |
| CCCCCCCCC(O)CN1C[C@H](O)[C@@H](O)[C@H](O)[C@H]1CO (stereo partly shown) [Compound No. 10, N-(2-Hydroxydecyl)moranoline tosylate] | 4.5 mm |
| N-Isoprenylmoranoline [Compound No. 9] | 8.2 mm |
| C[N+]1(C)C[C@H](O)[C@@H](O)[C@H](O)[C@H]1CO [Compound No. 21, N,N-Dimethylmoranoline ammonium iodide] | 5.6 mm |
| OC[C@@H]1[C@@H](O)[C@H](O)[C@@H](O)CN1CCCOc1ccccc1 [Compound No. 17, N-(3-Phenoxypropyl)moranoline tosylate] | 7.5 mm |
| CC(C)Oc1ccc(C=CCN2CC(O)C(O)C(O)C2CO)cc1 (stereo not shown) [Compound No. 34, N-(p-Isopropoxycinnamyl)moranoline] | 7.6 mm |
| OC[C@@H]1[C@@H](O)[C@H](O)[C@@H](O)CN1CCCOc1ccccc1Cl [Compound No. 30, N-(3-o-Chlorophenoxypropyl)moranoline] | 7.6 mm |
| CNC(=O)CCCCCCCCCCN1C[C@H](O)[C@@H](O)[C@H](O)[C@H]1CO [Compound No. 27, N-10-(N-Methylcarbamoyl)decylmoranoline] | 8.5 mm |
| COCCOc1cccc(C(C)=CCN2C[C@H](O)[C@@H](O)[C@H](O)[C@H]2CO)c1 [Compound No. 20, N-[3-(3-Methoxyethoxyphenyl)-2-butenyl]moranoline] | 8.0 mm |
| CCN1C[C@H](O)[C@@H](O)[C@H](O)[C@H]1CO [Compound No. 22, N-Ethylmoranoline] | 6.5 mm |
| OC[C@@H]1[C@@H](O)[C@H](O)[C@@H](O)CN1CC(O)COc1ccccc1 (stereo partly shown) [Compound No. 25, N-(2-Hydroxy-3-phenoxypropyl)moranoline tosylate] | 4.1 mm |
| CCCCN1C[C@H](O)[C@@H](O)[C@H](O)[C@H]1CO [Compound No. 2a, N-(n-Butyl)moranoline] | 7.5 mm |
| CCCCCCN1C[C@H](O)[C@@H](O)[C@H](O)[C@H]1CO [Compound No. 8, N-Hexylmoranoline tosylate] | 6.3 mm |
| OC[C@@H]1[C@@H](O)[C@H](O)[C@@H](O)CN1CC=Cc1ccccc1 [Compound No. 14, N-Cinnamylmoranoline hydrochloride] | 5.9 mm |
| Cc1ccc(CCCCN2C[C@H](O)[C@@H](O)[C@H](O)[C@H]2CO)cc1F [Compound No. 32, N-[4-(3-Fluoro-4-methylphenyl)butyl]moranoline] | 7.5 mm |
| OC[C@@H]1[C@@H](O)[C@H](O)[C@@H](O)CN1CCCc1ccccc1 [Compound No. 12, N-(3-Phenylpropyl)moranoline tosylate] | 5.9 mm |
| OC[C@@H]1[C@@H](O)[C@H](O)[C@@H](O)CN1CCCCCc1ccccc1 [Compound No. 18, N-5-(Phenylpentyl)moranoline tosylate] | 6.8 mm |
| OCC1C(O)C(O)C(O)CN1CC=Cc1ccccc1 (stereo not shown) [Compound No. 23, N-Cinnamylmoranoline] | 8.4 mm |
| CC(C)=CCCC(C)=CCCC(C)=CCN1CC(O)C(O)C(O)C1CO (stereo not shown) [Compound No. 26, N-Farnesylmoranoline tosylate] | 5.7 mm |
| CC(=CCN1C[C@H](O)[C@@H](O)[C@H](O)[C@H]1CO)c1ccc(Br)cc1 [Compound No. 31, N-(γ-Methyl-4-bromocinnamyl)moranoline] | 7.9 mm |
| OC[C@@H]1[C@@H](O)[C@H](O)[C@@H](O)CN1CCC=Cc1ccccc1 [Compound No. 28, N-(4-Phenyl-3-butenyl)moranoline tosylate] | 8.3 mm |
| OC[C@@H]1[C@@H](O)[C@H](O)[C@@H](O)CN1CCC1CCCC1 [Compound No. 19, N-(2-Cyclopentylethyl)moranoline tosylate] | 5.8 mm |
| CC(=CCN1C[C@H](O)[C@@H](O)[C@H](O)[C@H]1CO)c1cccc(C)c1 [Compound No. 35, N-(γ-Methyl-m-methylcimnnamyl)moranoline] | 7.8 mm |
| CC(=Cc1ccccc1)CN1C[C@H](O)[C@@H](O)[C@H](O)[C@H]1CO [Compound No. 29, N-(3-Phenyl-2-methyl-2-propenyl)moranoline] | 7.1 mm |
| O[C@H]1[C@H](O)[C@@H](O)CN2CC[C@H](O)[C@H]12 [Compound No. 38, Castanospermine] | 6.9 mm |
| CCOC(=O)c1ccc(OCCN2C[C@H](O)[C@@H](O)[C@H](O)[C@H]2CO)cc1 [Compound No. 37, N-(p-Ethoxycarbonylphenoxyethyl)moranoline] | 6.9 mm |
| COc1cccc(C(C)=CCCN2C[C@H](O)[C@@H](O)[C@H](O)[C@H]2CO)c1 [Compound No. 36, N-(4-m-Methoxyphenyl-3-pentenyl)moranoline] | 7.6 mm |
| CC(C)=CCC/C(C)=C/CN1C[C@H](O)[C@@H](O)[C@H](O)[C@H]1CO [Compound No. 24, N-Geranylmoranoline tosylate] | 7.6 mm |
| OC[C@@H]1[C@@H](O)[C@H](O)[C@@H](O)CN1CCCCc1ccccc1 [Compound No. 15, N-4-Phenylbutylmoranoline tosylate] | 6.3 mm |
| CCOc1ccc(C=CCN2CC(O)C(O)C(O)C2CO)cc1 (stereo not shown) [Compound No. 33, N-(p-Ethoxycinnamyl)moranoline] | 7.8 mm |
